These are literature values, as cited in patent US20030232875A1, “Bicyclic pyrrolyl amides as glucogen phosphorylase inhibitors” (priority 2000, published 2003).

In one data set the test system is conscious dogs. The settings on record: following a glucagon challenge.
Another data set concerns hepatocytes. The settings on record: in hepatocytes.
A further data set concerns db/db and ob/ob mice. As to conditions: db/db and ob/ob mice following treatment.

With `CCN1C(C)=C(C(=O)OC(C)C)C(c2ccccc2Cl)C2=C1COC2=O` (centres unmarked) [Bay R 3401], in the data set with conscious dogs, the “arterial plasma glucose levels” value is “reduced significantly” and the hepatic glucose output entry was “reduced significantly”.
Turning to `CN(C)C(=O)[C@H](O)[C@H](Cc1ccccc1)NC(=O)c1cc2cc(Cl)ccc2[nH]1` [CP91149], in the data set on hepatocytes, the glucagon stimulated glycogenolysis result is “reduce” and the glucose output result was “reduce”. Besides, the plasma glucose concentration result in the data set with db/db and ob/ob mice was “reduced, in a dose related manner”.
With `O=C(N[C@@H](Cc1ccc(F)cc1)C(=O)N1CCC(O)CC1)c1cc2cc(Cl)ccc2[nH]1` [CP320626], in the data set with hepatocytes, the glucagon stimulated glycogenolysis entry is on record as “reduce” and the glucose output result was “reduce”. Moreover, the plasma glucose concentration result in the data set on db/db and ob/ob mice is reported as “reduced, in a dose related manner”.
